pKi: −log10 of the molar value. Entries after “also recorded” stand apart in the source; their conditions may differ.
Key:
[1] = target: T1, δ opioid receptor (Mus musculus, UniProt P32300); assay: antagonism of DADLE on MVD preparations (Example 7); assay type: cell-based
T1 construct: Both vasa deferentia were dissected out of mice; from tissue; host or cells: mouse vas deferens (isolated, electrically stimulated)
Description: 2. Mouse Vas Deferens (MVD). […] The organ bath was maintained at 37° C.
(§1) Concentration-response curves were obtained in the absence (control) and the presence of the antagonist are expressed as IC50 values. […] Therefore, a high IC50 ratio represents a correspondingly high degree of antagonism at a particular receptor. […] Therefore, a low Ke represents a correspondingly high degree of binding at a particular receptor.

[2] = target: μ opioid receptor (Cavia porcellus, UniProt A0ACM8Q262); assay: antagonism of morphine in the GPI (Example 7); assay type: cell-based, guinea pig; conditions: morphine as agonist, read-out: Ke, μ (Table VII)
Description: (§2) 1. Guinea Pig Ileal Longitudinal Muscle (GPI). Ilea from guinea pigs were taken approximately 10 cm from the ileocaecal junction, and a strip of longitudinal muscle with the myenteric plexus attached was prepared by method of Rang et al., Brit. J. Pharmacol., 22, 356 (1964), the disclosure of which is incorporated by reference herein. A 1 cm portion of this strip was then mounted between two platinum electrodes placed in a 10 ml organ bath and connected to an isometric transducer. Contractions were recorded on a polygraph. […] The organ bath was maintained at 36°-37° C. The longitudinal muscle strip was allowed to equilibrate with continuous stimulation for a minimum of 90 min.

[3] = target: T2, κ opioid receptor (Cavia porcellus, UniProt P41144); assay: antagonism of ethylketazocine in the GPI (Example 7); assay type: cell-based, guinea pig; conditions: ethylketazocine as agonist, read-out: Ke, κ (Table VII)
T2 construct: a strip of longitudinal muscle with the myenteric plexus attached was prepared; from tissue; host or cells: guinea pig ileum longitudinal muscle with myenteric plexus
Description: as §2

[4] = target: T3, δ1 opioid receptor (Mus musculus, UniProt P32300); assay: antagonism of DPDPE in smooth muscle; assay type: cell-based; conditions: Table VIII, read-out: Smooth Muscle Ke, DPDPE (δ1)
T3 construct: Both vasa deferentia were dissected out of mice; from tissue; host or cells: smooth muscle preparation, inferred mouse vas deferens
Text: as §1

[5] = target: T4, δ1 receptors (Cavia porcellus, UniProt A0A286XTF2); assay: binding to guinea pig brain membranes, [3H]DPDPE
T4 construct: guinea pig brain membranes; from tissue; host or cells: guinea pig brain membranes
Description: (§3) Therefore, a better assessment of the δ subtype selectivity can be obtained from binding of brain membranes and from antagonism studies in mice. The binding of BNTX to guinea pig brain membranes was determined using the general method of L. L. Werling et al., J. Pharmacol. Exp. Ther., 233, 722 (1985), as modified by A. E. Takemori et al., J. Pharmacol. Exp. Ther., 246, 255 (1988). The radio-ligands employed were [^3 H]DPDPE ([D-Pen^2, D-Pen^5 ] enkephalin) for δ1receptors, [^3 H]DSLET([D-Ser^2 -Leus]enkephalin-Thr^6) for δ^2 receptors, [3H]DAMGO for μ receptors and U69593(trans-(±)-3,4-dichloro-N-methyl-N-[2-(lpyrididinyl)cyclohexyl]benzeneacetamide) for κ receptors.

[6] = target: T5, δ2 receptors (Cavia porcellus, UniProt A0A286XTF2); assay: binding to guinea pig brain membranes, [3H]DSLET
T5 construct: guinea pig brain membranes; from tissue; host or cells: guinea pig brain membranes
Description: as §3

[7] = target: μ receptors (Cavia porcellus, UniProt A0ACM8Q262); assay: binding to guinea pig brain membranes, [3H]DAMGO
[8] = target: T6, μ opioid receptor (Mus musculus, UniProt P42866); assay: tail flick assay, antagonism of antinociception by μ agonist; assay type: in vivo, mice; conditions: BNTX 6.25 pmol/i.c.v./mouse
T6 construct: evaluated in mice using the tail flick assay; from tissue; host or cells: living mice (i.c.v. injection)
Description: (§4) The antagonist effect of BNTX on antinociceptin was evaluated in mice using the tail flick assay, in accord with the procedure of F. C. Tulunay et al., J. Pharmacol. Exp. Ther., 243, 91 (1987). At least three groups of ten mice were used to generate dose-response curves. A mouse was regarded as positive for antinociception if the latency to flick its tail was more than the control latency plus 3 S.D. of the mean reaction time of the group. The reaction times were determined at the peak time for antinociception after administration of various agonists. Intracerebroventricular (i.c.v.) injections were made in a volume of 5 μl by the method of T. J. Haley et al., Br. J. Pharmacol., 12, 12 (1957).
(§5) On Table VIII, the potencies are expressed as ED50 ratios, which represent the ED50 of the standard agonist administered subcutaneously in the presence of BNTX (6.25 pmol/i.c.v./mouse), divided by the ED50 of the standard agonist.

[9] = target: T7, κ opioid receptor (Mus musculus, UniProt P33534); assay: tail flick assay, antagonism of antinociception by U50488H; assay type: in vivo, mice; conditions: BNTX 6.25 pmol/i.c.v./mouse
T7 construct: evaluated in mice using the tail flick assay; from tissue; host or cells: living mice (i.c.v. injection)
Description: as §4, §5

[10] = target: T8, δ2 opioid receptor (Mus musculus, UniProt P32300); assay: tail flick assay, antagonism of antinociception by DSLET; assay type: in vivo, mice; set-up: evaluated in mice using the tail flick assay; from tissue; host or cells: living mice (i.c.v. injection); conditions: BNTX 6.25 pmol/i.c.v./mouse
Description: as §4, §5

[11] = target: T8, δ2 opioid receptor; assay: antagonism of DSLET in smooth muscle; assay type: cell-based; set-up: Both vasa deferentia were dissected out of mice; from tissue; host or cells: smooth muscle preparation, inferred mouse vas deferens; conditions: Table VIII, read-out: Smooth Muscle Ke, DSLET (δ2)
Text: as §1

[12] = test system: enkephalin-binding receptor on cells of the immune system; conditions: in words; cited from earlier work
[13] = test system: splenic mononuclear cells (MNC); assay: depressed AMLR of splenic MNC from rats infected with rat coronavirus; assay type: cell-based; conditions: FIG. 2
Description: Rats were anesthetized with a mixture of 8 mg/ml keta/nine and 2 mg/ml acepromazine (dose=0.1 ml/100 g body weight) and the spleens were removed aseptically. The animals were exsanguinated while under anesthesia. Splenic MNC were released from the surrounding connective tissue by dispersing through a wire mesh. The red blood cells were removed by density gradient centrifugation on ficol-hypaque (Lymphocyte Separation Medium, LSM, Organon Tecknika, Durham, N.C.). The purified MNC were washed in Hanks Balanced Salt Solution containing 1% gelatin and 2 mM EDTA and resuspended in RPMI-1640 medium containing 5% Fetal Bovine Serum (FBS), 100 U/ml penicillin, 100 ug/ml streptomycin and 5×10^-5 M 2-mercaptoethanol. In some experiments, TCM™, a defined medium supplement (CELOX, Minneapolis, Minn.), was used instead of FBS.
Purified MNC were placed in 96-well round bottom plates at 2×10^5cells/well in a total volume of 0.2 ml and incubated for 5 days at 37° C. […] The cells were then harvested onto glass fiber filter paper and counted in a Beckman (Fullerton, Calif.) scintillation counter. The results are calculated as the mean counts per minute of triplicate wells, and are expressed as percent of control (cpm suppressed AMLR/cpm control AMLR). […]

[14] = test system: splenic MNC (T and non-T cells); assay: depressed AMLR of splenic cells from mice infected with mCMV; assay type: cell-based; conditions: for reversal of AMLR suppressed by CMV 10^-4: AMLR suppressed 42%; for reversal of AMLR suppressed by CMV 10^-2: AMLR suppressed 20%
Description: Mice were injected i.p. with serial 10-fold dilutions of a stock mCMV solution. Dilutions of stock virus ranged from 10^-2 to 10^-6. Mice were sacrificed after 10 days of infection. Control mice were injected with saline.
Splenic MNC from CMV-infected and uninfected mice were purified by density gradient centrifugation on LSM, as described above for the rat splenic MNC. T and non-T cell fractions were separated by nylon wool columns as disclosed by M. H. Julius et al., Eur. J. Immunol., 3, 645 (1973). The T-enriched cells were used as responder cells. The non-T cells were treated with mitomycin-C to stop their proliferation, as described by K. M. Linner et al., Endocrinol., 128, 717 (1991) and used as stimulator cells. Autologous cell cultures were then set up, with equal numbers (2×10^5) of responder T and stimulator non-T cells being cultured in the 96-well microtiter plates. Cells were cultured for 5 days. To some wells, NTI at 10^-10, 10^-12 or 10^-14 M, concentrations determined to be optimal from the rat AMLR studies, was added for the duration of the culture period. ^3 H-thymidine was added to each well for the last 18 hr of incubation, and the cultures were harvested and counted as described above.

[15] = target: mu opioid receptors; conditions: read-out: Ke, M (morphine); GPI, agonist morphine; antagonist 100 or 200 nM, 15 min; cited from earlier work
[16] = test system: delta opioid receptors; conditions: 20 mg/kg s.c.; in words; cited from earlier work
[17] = test system: mu opioid receptors; conditions: 20 mg/kg s.c.; in words; cited from earlier work
[18] = test system: kappa opioid receptors; conditions: 20 mg/kg s.c.; in words; cited from earlier work
[19] = test system: renal allograft; conditions: in words; cited from earlier work
[20] = test system: mixed lymphocyte responses; conditions: cited from earlier work
[21] = test system: allogeneic murine spleen cells; conditions: cited from earlier work
[22] = both in vivo and in vitro; cited from earlier work
[23] = test system: immune function; conditions: both in vivo and in vitro; cited from earlier work

T4 sequence (A0A286XTF2 1-366): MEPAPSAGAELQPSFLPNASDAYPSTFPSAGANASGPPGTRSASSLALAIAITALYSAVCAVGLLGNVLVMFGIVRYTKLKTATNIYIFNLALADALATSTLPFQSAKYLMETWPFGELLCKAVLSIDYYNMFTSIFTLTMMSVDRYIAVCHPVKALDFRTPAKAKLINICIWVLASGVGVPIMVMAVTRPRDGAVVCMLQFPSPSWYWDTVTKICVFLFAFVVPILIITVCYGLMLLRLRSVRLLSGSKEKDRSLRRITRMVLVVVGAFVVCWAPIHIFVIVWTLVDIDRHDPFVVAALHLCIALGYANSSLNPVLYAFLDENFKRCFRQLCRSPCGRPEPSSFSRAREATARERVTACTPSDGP
T1 sequence (P32300 whole entry): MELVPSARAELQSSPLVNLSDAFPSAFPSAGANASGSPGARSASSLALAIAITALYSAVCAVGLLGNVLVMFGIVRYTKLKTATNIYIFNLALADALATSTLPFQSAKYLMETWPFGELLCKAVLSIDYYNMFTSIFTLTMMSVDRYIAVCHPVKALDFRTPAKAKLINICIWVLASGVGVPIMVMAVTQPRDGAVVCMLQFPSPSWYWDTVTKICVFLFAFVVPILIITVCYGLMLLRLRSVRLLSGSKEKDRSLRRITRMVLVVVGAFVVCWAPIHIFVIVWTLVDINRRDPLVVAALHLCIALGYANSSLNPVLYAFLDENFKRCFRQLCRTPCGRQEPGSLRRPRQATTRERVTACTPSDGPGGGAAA
T8 sequence (P32300 whole entry): as above
T6 sequence (P42866 whole entry): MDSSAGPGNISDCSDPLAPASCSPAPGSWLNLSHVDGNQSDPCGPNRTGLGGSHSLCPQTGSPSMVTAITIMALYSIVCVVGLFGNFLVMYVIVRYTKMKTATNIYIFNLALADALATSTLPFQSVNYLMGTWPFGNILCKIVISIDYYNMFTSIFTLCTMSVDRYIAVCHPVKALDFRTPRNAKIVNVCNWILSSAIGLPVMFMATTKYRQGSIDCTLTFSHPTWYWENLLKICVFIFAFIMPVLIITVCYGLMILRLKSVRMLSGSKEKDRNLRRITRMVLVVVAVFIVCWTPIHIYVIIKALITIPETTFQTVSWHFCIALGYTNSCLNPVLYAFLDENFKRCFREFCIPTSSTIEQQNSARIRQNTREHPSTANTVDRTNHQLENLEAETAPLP
T7 sequence (P33534 whole entry): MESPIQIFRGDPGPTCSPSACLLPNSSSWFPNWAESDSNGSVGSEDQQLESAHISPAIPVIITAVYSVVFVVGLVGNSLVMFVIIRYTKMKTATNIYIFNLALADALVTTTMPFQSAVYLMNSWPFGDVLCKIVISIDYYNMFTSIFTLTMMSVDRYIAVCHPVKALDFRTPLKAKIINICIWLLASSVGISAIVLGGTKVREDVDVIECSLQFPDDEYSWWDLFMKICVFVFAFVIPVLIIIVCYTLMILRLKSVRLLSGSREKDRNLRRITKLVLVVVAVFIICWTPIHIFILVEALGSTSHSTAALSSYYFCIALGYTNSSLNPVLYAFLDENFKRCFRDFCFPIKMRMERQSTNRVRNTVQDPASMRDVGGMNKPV
Chain of μ opioid receptor (Cavia porcellus, UniProt A0ACM8Q262) (A0ACM8Q262 1-400): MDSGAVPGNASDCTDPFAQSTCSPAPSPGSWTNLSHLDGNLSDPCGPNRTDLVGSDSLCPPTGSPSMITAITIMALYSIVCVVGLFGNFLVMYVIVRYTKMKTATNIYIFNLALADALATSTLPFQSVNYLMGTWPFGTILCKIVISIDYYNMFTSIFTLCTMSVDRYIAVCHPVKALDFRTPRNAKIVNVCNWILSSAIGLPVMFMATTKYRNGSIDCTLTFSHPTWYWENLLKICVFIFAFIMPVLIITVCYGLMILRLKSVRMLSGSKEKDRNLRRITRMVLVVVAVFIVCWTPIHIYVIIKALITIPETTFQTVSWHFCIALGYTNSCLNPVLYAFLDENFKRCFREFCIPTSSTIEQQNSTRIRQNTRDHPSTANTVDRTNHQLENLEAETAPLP
Chain of μ receptors (A0ACM8Q262 1-400): as above
T5 sequence (A0A286XTF2 1-366): as the sequence (A0A286XTF2 1-366) above
T3 sequence (P32300 whole entry): as the sequence (P32300 whole entry) above
T2 sequence (P41144 whole entry): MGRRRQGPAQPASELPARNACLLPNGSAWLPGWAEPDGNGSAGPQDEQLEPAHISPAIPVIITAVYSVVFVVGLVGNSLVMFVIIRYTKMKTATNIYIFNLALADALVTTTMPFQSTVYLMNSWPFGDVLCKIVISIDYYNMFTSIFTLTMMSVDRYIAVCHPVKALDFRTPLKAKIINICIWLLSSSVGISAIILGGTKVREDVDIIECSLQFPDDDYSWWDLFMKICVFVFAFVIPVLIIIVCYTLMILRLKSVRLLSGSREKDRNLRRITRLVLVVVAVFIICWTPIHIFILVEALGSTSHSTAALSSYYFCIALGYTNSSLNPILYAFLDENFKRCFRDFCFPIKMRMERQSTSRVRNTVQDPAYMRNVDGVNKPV

O=C1C(=Cc2ccccc2)C[C@@]2(O)[C@H]3Cc4ccc(O)c5c4[C@@]2(CCN3CC2CC2)[C@H]1O5 [BNTX, 7-Benzylidene-7-dehydronaltrexone]
Kb [1]: 2.9 nM | Ke Ratio κ/δ ([1]; GPI ethylketazocine / MVD DADLE): 35 | Ke Ratio μ/δ ([1]; GPI morphine / MVD DADLE): 2.9 | Ke ratios compared with NTI and naltrexone, in words ([1]; Table VII data): less than those of the standard δ agonist NTI, but greater than those of naltrexone | receptor selectivity in words ([1]; Table VII data): δ-selective antagonist | Kb [2]: 8.3 nM | Kb [3]: 100 nM | Kb [4]: 5.2 nM | δ1 selectivity in words ([5]; binding): highly selective for δ1 receptor sites; also recorded: first δ1 opioid receptor subset-selective antagonist | pKi ([5]; guinea pig brain membranes): 10.00 | binding ratio, Ki(δ2)/Ki(δ1) ([5]; guinea pig brain membranes): about 100 | pKi [6]: 7.97 | pKi [7]: 7.88 | ED50 Ratio ("Potency Ratio"), DAMGO row [8]: 0.88 | shift of the morphine dose-response curve ([8]; in words): not shifted significantly | ED50 Ratio ("Potency Ratio"), U50488H [9]: 1.2 | shift of the U50488H dose-response curve ([9]; in words): not shifted significantly | ED50 Ratio ("Potency Ratio"), DSLET [10]: 0.91 | shift of the DSLET dose-response curve ([10]; in words): not shifted significantly | Kb [11]: 2.1 nM

C=CCN1CC[C@]23c4c5ccc(O)c4O[C@H]2C(=O)CC[C@@]3(O)[C@H]1C5 [naloxone]
block of many of the effects of enkephalins on immune function [12]: blocked

Oc1ccc2c3c1O[C@H]1c4[nH]c5ccccc5c4C[C@@]4(O)[C@@H](C2)N(CC2CC2)CC[C@]314 [Compound 1, 17-(cyclopropylmethyl)-6,7-dehydro-3,14β-dihydroxy-4,5α-epoxy-6,7-2',3'-indolmorphinan]
reversal of depressed AMLR [13]: reversed | reversal of the suppressed AMLR caused by CMV infection ([14]; FIGS. 4A and 4B): can reverse the suppressed AMLR | reversal of AMLR suppressed by CMV 10^-4 ([14]; NTI 10^-10 M): partially | reversal of AMLR suppressed by CMV 10^-2 ([14]; NTI 10^-12 and 10^-10 M): completely reversed | reversal of AMLR suppressed by CMV 10^-4 ([14]; NTI 10^-14 M-10^-12 M): reversed completely | reversal of AMLR suppressed by CMV 10^-2 ([14]; NTI 10^-14 M): not by NTI at 10^-14 M | Kb [2]: […] | Kb [15]: 29.4 nM | block of writhing inhibition due to DSLET [16]: effectively blocked | antagonism of the effect of morphine [17]: without significantly antagonizing | antagonism of the effect of U50488H [18]: without significantly antagonizing | allograft survival [19]: prolong allograft survival | effectiveness compared with cyclosporine A (CsA) ([20]; in both in vitro responses): less effective than cyclosporine A (CsA) | allogeneic and xenogeneic mixed lymphocyte responses ([20]; in vitro, in words): suppress in vitro allogeneic and xenogeneic mixed lymphocyte responses | MLR suppression [21]: strongly suppresses the MLR | toxicity [22]: non-toxic | immunosuppression [23]: immunosuppressive
